These results are taken from patent US6800659B2, “Compounds for modulating cell proliferation” (HSC Research and Development Limited Partnership, priority 2000, dated 2004).

Structures are written as SMILES.

Data set [1] concerns normal bone marrow cells. Briefly: CFU-GEMM assay: normal bone marrow differentiation in culture. Particulars: for inhibition of BFU-E colony formation: 20 μM. It is filed as cell-based. The method, then:
(§1) The CFU-GEMM assay was performed according to Fauser and Messner (1978, Blood, 52(6) 143-8) and Messner and Fausser (1980, Blut, 41(5) 327-33) with some variations. In brief, heparinized bone marrow cells were layered over Percoll (1.077 gm/ml) (Pharmacia Fine Chemical, Piscataway N.J.) and centrifuged at 400 g at 4° C. for 10 minutes to remove neutrophils and RBCs. The fractionated BM cells at 2×10^5 cells/ml were cultured in IMDM (OCl, Toronto) containing 0.9% (vol/vol) methylcellulose supplemented with 30% FCS (Cansera Rexdale, ON.) or normal human plasma, a cocktail of cytokines containing G-CSF (10 ng/ml, Amgen), IL-3 (40 U/ml, Immunex), MGF (50 ng/ml, Immunex), Erythropoietin (2 u/ml, Epprex) or TPO (10 ng/ml, Amgen), 5×10^−5M β-2-mercaptoethanol and the specified concentration of CR4. The culture mixture was plated in 1 ml volumes into 35 mm petri dishes and incubated at 37° C., 5% CO2 in a humidified atmosphere. All cultures were evaluated at 14 days for the number of BFU-E colonies (defined as aggregates of more than 500 hemoglobinized cells or, 3 or more erythroid subcolonies), OFU-GM colonies (defined as granulocyte or monocyte-macrophage cells or both), CFU-Meg colonies (comprising 4 or more megakaryocytes) and CFU-GEMM colonies (a mixed population comprising of all elements).
as §1, with “1243-8)” for “143-8)”, “concentrations” for “concentration”, “CR19.” for “CR4.”, “hemaglobinized” for “hemoglobinized”, “subcolonies) and CFU-C” for “subcolonies), OFU-GM”, “both).” for “both), CFU-Meg colonies (comprising 4 or more megakaryocytes) and CFU-GEMM colonies (a mixed population comprising of all elements).”
as §1, with “1243-8)” for “143-8)”, “variations (British Journal of Haematology, 1992, 80, p40-48).” for “variations.”, “test compound.” for “CR4.”, “CO2,” for “CO2”, “subcolonies) and CFU-C” for “subcolonies), OFU-GM”, “both).” for “both), CFU-Meg colonies (comprising 4 or more megakaryocytes) and CFU-GEMM colonies (a mixed population comprising of all elements).”

The subject of data set [2] is acute lymphoblastic leukemia, Philadelphia positive ALL, acute myeloid leukemia, myeloma and B-lineage lymphoma. Briefly: Growth of cancer cells in culture, summary over cell types. The data set is classed as cell-based. Particulars: for effectiveness against a variety of cell types (Acute Lymphoblastic Leukemia, Philadelphia positive Leukemia, Acute Myeloid Leukemia): in culture.

The test system of data set [3] is Philadelphia positive acute lymphoblastic leukemia (Ph+ ALL) cells. Kind of data set: Colony growth of Philadelphia positive ALL cells in methylcellulose culture. The data set is classed as cell-based, human. As to the method: Ph+ ALL cells were plated in 1 ml volumes, in the absence of exogenous growth factors, into 35 mm petri dishes (Nunc, Gibco) containing alpha MEM (Gibco) plus 10% FCS (Cansera Rexdale, ON.) in 0.9% (vol/vol) methylcellulose (Fluka, Switzerland) with the indicated concentrations of CR4. Cultures were set at 37° C., 5% CO2 in a humidified atmosphere. Colonies consisting of more than 20 cells were counted at 12 days or earlier using an inverted microscope.
ALL cells were plated in 1 ml volumes, in the absence of exogenous growth factors, into 35 mm petri dishes (Nunc, Gibco) containing alpha MEM (Gibco) plus 20% FCS (Cansera Rexdale, ON.) in 0.9% (vol/vol) methylcellulose (Fluka, Switzerland) and the indicated concentrations of compound Cultures were set at 37° C., 5% CO2 in a humidified atmosphere Colonies consisting of more than 20 cells were counted at 12 days or earlier using an inverted microscope.
ALL cells were plated in 1 ml volumes, in the absence of exogenous growth factors, into 35 mm petri dishes (Nunc, Gibco) containing alpha MEM (Gibco) plus 20% FCS (Cansera Rexdale, ON) in 0.90% (vol/vol) methylcellulose (Fluka, Switzerland) and the indicated concentrations of compound. Cultures were set at 37° C., 5% CO2 in a humidified atmosphere. Colonies consisting of more than 20 cells were counted at 12 days or earlier using an inverted microscope.
ALL cells were plated in 1 ml volumes, in the absence of exogenous growth factors, into 35 mm petri dishes (Nunc, Gibco) containing alpha MEM (Gibco) plus 20% FCS (Cansera Rexdale, ON.) in 0.9% (vol/vol) methylcellulose (Fluka, Switzerland) and the indicated concentrations of CR24. Cultures were set at 37° C., 5% CO2 in a humidified atmosphere. Colonies consisting of more than 20 cells were counted at 9 days or earlier using an inverted microscope.
ALL cells were plated in 1 ml volumes, in the absence of exogenous growth factors, into 35 mm petri dishes (Nunc, Gibco) containing alpha MEM (Gibco) plus 20% FCS (Cansera Rexdale, ON.) in 0.9% (vol/vol) methylcellulose (Fluka, Switzerland) and the indicated concentrations of CR19. Cultures were set at 37° C., 5% CO2 in a humidified atmosphere. Colonies consisting of more than 20 cells were counted at 9 days or earlier using an inverted microscope.

Data set [4] deals with normal bone marrow cells. Kind of data set: In vitro purging of normal bone marrow, then colony assay. It is filed as cell-based. The method, then:
Heparinized bone marrow cells were layered over Percoll (1.077 gm/ml) (Pharmacia Fine Chemical, Piscataway N.J.) and centrifuged at 400 g at 4° C. for 10 minutes to remove neutrophils and RBCs.
For the purging process, the cells were resuspended at 1×10^6/ml in complete medium with or without 50 μM CR4. The cells were incubated with the CR4 for two and a half hours at 37° C., 5% CO2. At the end of this period the cells were thoroughly washed in medium to remove CR4 and then cultured at 2×10^5 cells/ml in IMDM (OCl, Toronto) containing 0.9% (vol/vol) methylcellulose supplemented with 30% FCS (Cansera Rexdale, ON.) or normal human plasma, a cocktail of cytokines containing G-CSF (10 ng/ml, Amgen), IL-3 (40 U/ml, Immunex), MGF (50 ng/ml, Immunex), Etryhropoietin (2 u/ml, Epprex) or TPO (10 ng/ml, Amgen) and 5×10^−5M b-2-mercaptoethanol. The culture mixture was plated in 1 ml volumes into 35 mm petri dishes and incubated at 37° C., 5% CO2 in a humidified atmosphere. All cultures were evaluated at 14 days for the number of BFU-E colonies (defined as aggregates of more than 500 hemaglobinized cells or, 3 or more erythroid subcolonies), CFU-C colonies (defined as granulocyte or monocyte-macrophage cells or both) and CFU-GEMM colonies (a mixed population comprising of all elements).
For the purging process, the cells were resuspended at 1×10^6/ml in complete medium with or without 50 μM CR11. The cells were incubated with the tryrphostin for seven hours at 37° C., 5% CO2. At the end of this period the cells were thoroughly washed in medium to remove CR11 and then cultured at 2×10^5 cells/ml in IMDM (OCl, Toronto) containing 0.9% (vol/vol) methylcellulose supplemented with 30% FCS (Cansera Rexdate, ON.) or normal human plasma, a cocktail of cytokines containing G-CSF (10 ng/ml, Amgen), IL-3 (40 U/ml, Immunex), MGF (50 ng/ml, Immunex), Erythropoietin (2 u/ml, Epprex) or TPO (10 ng/ml, Amgen) and 5×10^−5M β-2-mercaptoethanol. The culture mixture was plated in 1 ml volumes into 35 mm petri dishes and incubated at 37° C., 5% CO2 in a humidified atmosphere. All cultures were evaluated at 14 days for the number of BFU-E colonies (defined as aggregates of more than 500 hemoglobinized cells or, 3 or more erythroid subcolonies), CFU-C colonies (defined as granulocyte or monocyte-macrophage cells or both) and CFU-GEMM colonies (a mixed population comprising of all elements).

The test system of data set [5] is Philadelphia positive ALL, AML and lymphoma. Kind of data set: High dose in vitro (ex vivo) purging assays, summary. The data set is classed as cell-based. The source says:
[…] Cancer cell death was effected by the induction of apoptosis. Accordingly, in another aspect of the invention, there is provided a method for killing cancer cells by ex vivo treatment of bone marrow from a patient with cancer with a compound of the invention, preferably CR4 and CR11 and then re-introducing the treated (or purged) bone marrow into the patient.

The test system of a further data set is Ph+ ALL cells. Briefly: In vitro purging of Philadelphia positive ALL with CR11. It is filed as cell-based, human. Particulars: 50 μM, 7 hours exposure (FIG. 22). The method, then:
For the purging assay, the cells were resuspended in complete medium with or without CR11 as indicated and incubated at 37° C., 5% CO2 for 0-7 hours. Cells were then washed thoroughly with medium to remove the CR11, resuspended and plated in 1 ml volumes, in the absence of exogenous growth factors, into 35 mm petri dishes (Nunc, Gibco) containing alpha MEM (Gibco) plus 20% FCS (Cansera Rexdale, ON.) in 0.9% (vol/vol) methylcellulose (Fluka, Switzerland). Cultures were set at 37° C., 5% CO2 in a humidified atmosphere. Colonies consisting of more than 20 cells were counted at 9 days or earlier using an inverted microscope.

[6] abbreviates: low nanomolar doses, long term exposure.

Take `N#C/C(=C\C=C\c1ccccc1)C(=O)NCc1ccc(O)c(O)c1` [CR19, (E,E)-2-(3,4-Dihydroxybenzylaminocarbonyl)-3-styrylacrylonitrile]: in the data set with normal bone marrow cells [1] (2.5 μM, 14 days (FIG. 12)), the CFU-C colony formation entry is “boosted” and the “inhibition of the development of BFU-E colonies” value is listed as “significant inhibition”. Further, in the data set with normal bone marrow cells [1] (5 μM, 14 days (FIG. 12)), the BFU-E colonies entry is on record as “virtually absent” and the “CFU-C colony formation (stimulatory effect)” value is reported as “stimulatory effect disappeared”. Besides, the “normal cell growth and differentiation” value in the data set with normal bone marrow cells [1] (setting [6]) was “unaffected”. Further, the “effectiveness against a variety of cell types (Acute Lymphoblastic Leukemia, Philadelphia positive Leukemia, Acute Myeloid Leukemia)” value in data set [2] is reported as “highly effective”. Further, the “toxicity to cancer cells” value in data set [2] (setting [6]) was “highly toxic”. For the same compound, the “effectiveness against Ph+ ALL cells” value in data set [3] (nanomolar concentrations, colonies at 9 days (FIG. 11)) is “highly effective”.
For `COc1cc(/C=C/C=C(\C#N)C(=O)NCc2ccc(O)c(O)c2)cc(OC)c1O` [CR11, (EE)-2-(3,4-Dihydroxybenzylaminocarbonyl)-3-(3,5-dimethoxy-4-hydroxystyryl)acrylonitrile], the “effectiveness against a variety of cell types (Acute Lymphoblastic Leukemia, Philadelphia positive Leukemia, Acute Myeloid Leukemia)” value in data set [2] is on record as “highly effective”. Also, the “BFU-E, CFU-GEMM and CFU-C colonies” value in the data set on normal bone marrow cells [4] (seven hours exposure to 50 μM (FIG. 21)) is listed as “all normal”. For the same compound, the “inhibition of colony formation” value with normal bone marrow cells [4] (seven hours exposure to 50 μM, colonies at 14 days (FIG. 21)) is given as “did not result in any significant inhibition”. Also, the “effectiveness as ex vivo purging agents” value in data set [5] is “effective”. Moreover, the “killing of Ph+ ALL cells” value in the data set with Ph+ ALL cells is reported as “complete killing”.
`N#C/C(=C\C=C\c1ccc(O)c(O)c1)C(=O)NCc1ccc(O)c(O)c1` [CR21, (E,E)-2(3,4-Dihydroxybenzylaminocarbonyl)-3-(3,4-dihydroxystyryl)acrylonitrile]: the “inhibition of BFU-E colony formation” value in the data set with normal bone marrow cells [1] (14 days (FIG. 13)) is recorded as “caused inhibition”. Besides, the “inhibition of cell growth” value in data set [3] (5 μM, Example 42, FIG. 8) is recorded as “inhibited cell growth”; in data set [3] (1-2.5 μM, Example 43, FIG. 9) it was “significant inhibition”.
For the compound `COc1cc(/C=C/C=C(\C#N)C(=O)NCCO)cc(OC)c1O` [CR24, (E,E)-2-(β-Ethanolaminocarbonyl)-3-(3,5-dimethoxy-4-hydroxystyryl)acrylonitrile], the “inhibition of bone marrow colony formation” value in the data set with normal bone marrow cells [1] (either 10 or 20 μM, 14 days (FIG. 13)) was “minimal inhibition”. Also, in data set [3] (between 2.5 and 5 μM, colonies at 9 days (FIG. 10)), the “inhibition of cell growth” value was “virtually complete inhibition”. In data set [3] (concentrations as low as 0.5 μM, colonies at 9 days (FIG. 10)), the “effectiveness against Ph+ ALL cells” value is listed as “effective”.
For `N#C/C(=C\C=C\c1ccc(O)c(O)c1)C(N)=O` [CR17, (E,E)-2-Aminocarbonyl-3-(3,4-dihydroxystyryl)acrylonitrile], the “inhibition of BFU-E colony formation” value with normal bone marrow cells [1] (14 days (FIG. 13)) is “caused inhibition”. Moreover, the “inhibition of cell growth” value in data set [3] (1-2.5 μM, Example 42, FIG. 8) is listed as “significant inhibition”; in data set [3] (1-2.5 μM, Example 43, FIG. 9) it was “significant inhibition”.
